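Interpolation was linear, between the two tested concentrations surrounding the appropriate level; five concentrations were tested over 48 hours in 96-well plates. GI50: concentration for 50% inhibition of growth.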 The source made the active and inactive calls. Rule as the data show it: active = GI50 up to about 1.1 µM and inactive = higher.
How the values were obtained:
Assay in all cases: NCI anticancer screen, dose series, 48 h
[1] = tested on: DLD-1
[2] = tested on: DMS-114
[3] = tested on: DMS-273
[4] = tested on: HOP-18
[5] = tested on: KM-20L2
[6] = tested on: LXFL 529
[7] = tested on: M19-MEL
[8] = tested on: SNB-78
[9] = tested on: RXF 631

Row | Structure (SMILES) | GI50 [1] | GI50 [2] | GI50 [3] | GI50 [4] | GI50 [5] | GI50 [6] | GI50 [7] | GI50 [8] | GI50 [9]
1 | COc1ccc([C@H]2CC(=O)NCCCCN2)cc1 | > 100 µM (inactive) | > 100 µM (inactive) | > 100 µM (inactive) | > 100 µM (inactive) | > 100 µM (inactive) | > 100 µM (inactive) | > 100 µM (inactive) | > 100 µM (inactive) | 
2 | Cc1csc(CCC(N)C(=O)O)n1 (stereo not given) | > 100 µM (inactive) |  | > 100 µM (inactive) | > 100 µM (inactive) |  | > 100 µM (inactive) | > 100 µM (inactive) | > 100 µM (inactive) | 
3 | O=C(N/C(=C\c1ccc(Oc2ccc(Cl)c(Cl)c2)cc1)c1nc2ccccc2[nH]1)c1ccccc1 | 17.7 µM (inactive) |  | 21.2 µM (inactive) |  | 17.7 µM (inactive) | 12.5 µM (inactive) | 27.6 µM (inactive) | 20.4 µM (inactive) | 
4 | O=C(c1nc2ccc([N+](=O)[O-])cc2nc1O)C(O)c1ccc2c(c1)OCO2 (stereo not given) | > 100 µM (inactive) | 29.5 µM (inactive) | > 100 µM (inactive) | > 100 µM (inactive) | 47 µM (inactive) | 71.8 µM (inactive) | > 100 µM (inactive) |  | 
5 | O=C1C=CC(=O)c2c1cc1ccccc1c2O | 1.66 µM (inactive) |  | 12.7 µM (inactive) | 18.2 µM (inactive) | 19 µM (inactive) | 1.9 µM (inactive) | 4.01 µM (inactive) | 3.78 µM (inactive) | 
6 | N/N=C(\Cc1ccccc1)NN=C(N)N | > 100 µM (inactive) |  |  | > 100 µM (inactive) |  | > 100 µM (inactive) | > 100 µM (inactive) | > 100 µM (inactive) | > 100 µM (inactive)
7 | CC(C)CC(NC(=O)OC(C)(C)C)C(=O)Nc1ccc(Nc2nc(F)nc(-c3c4ccccc4cn3C)n2)cc1 (stereo not given) | > 37.2 µM (inactive) | 21.8 µM (inactive) | 42.6 µM (inactive) | > 100 µM (inactive) | 37.6 µM (inactive) | 77.3 µM (inactive) | 97.9 µM (inactive) | 14.7 µM (inactive) | 
8 | C=COC(=O)N[C@H]1CCc2cc(OC)c(OC)c(OC)c2-c2ccc(SC)c(=O)cc21 |  | < 0.01 µM (active) | < 0.01 µM (active) | > 100 µM (inactive) | < 0.01 µM (active) | < 0.01 µM (active) | < 0.01 µM (active) | < 0.01 µM (active) | 
9 | CN(C(=O)C12C3C4C1C1C2C3C41C(N)=O)C(C)(C)C (stereo not given) |  | > 100 µM (inactive) | > 100 µM (inactive) |  |  | > 100 µM (inactive) | > 100 µM (inactive) | > 100 µM (inactive) | 
10 | COC(=O)C(C(=O)C(=O)Nc1nc2ccc([N+](=O)[O-])cc2s1)c1nc2ccc(Cl)cc2nc1O (stereo not given) | > 100 µM (inactive) | > 100 µM (inactive) | > 100 µM (inactive) | > 100 µM (inactive) | > 100 µM (inactive) | > 100 µM (inactive) | > 100 µM (inactive) | > 100 µM (inactive) | > 100 µM (inactive)
11 | COc1nc(NC2OC(COC(C)=O)C(OC(C)=O)C(OC(C)=O)C2OC(C)=O)c(-c2csc(N)n2)c(=O)n1C (stereo not given) | 52.7 µM (inactive) | 53.5 µM (inactive) |  | 39.4 µM (inactive) | > 100 µM (inactive) | 70 µM (inactive) | 36.5 µM (inactive) | 62.2 µM (inactive) | 
12 | Cc1ccc(/N=N/c2ccc(N(CCC#N)CCC#N)cc2C)c(Br)c1 | 13.7 µM (inactive) | 12.8 µM (inactive) | 10 µM (inactive) | 15.6 µM (inactive) |  | 20 µM (inactive) | 25.4 µM (inactive) | 24.7 µM (inactive) | 4.35 µM (inactive)
13 | CCCCCCCCCCCCn1[nH]c(C)c(C(=S)SCCCCCCCC)c1=O | 19.6 µM (inactive) | 26.7 µM (inactive) | 99.5 µM (inactive) | 61.5 µM (inactive) | 36.8 µM (inactive) | 53.2 µM (inactive) | 23.6 µM (inactive) | > 100 µM (inactive) | 75.7 µM (inactive)
14 | COc1nc(C(Cl)(Cl)Cl)c(Cl)c(OC)c1Cl [PENCLOMEDINE] | 42.6 µM (inactive) | 25.4 µM (inactive) | 40.4 µM (inactive) | 36.1 µM (inactive) | 47 µM (inactive) |  | 31.5 µM (inactive) | 37.1 µM (inactive) | 17.6 µM (inactive)
15 | Cc1ccc(NC(=O)CCC(CC(=O)C(C)(C)C)=NNC(=O)C(=O)NN)cc1C | > 100 µM (inactive) |  | > 100 µM (inactive) | > 100 µM (inactive) | > 100 µM (inactive) | > 100 µM (inactive) | > 100 µM (inactive) |  | 
16 | COc1cc2c(cc1OC)C(=O)N1CCCC1C(=O)S2 (stereo not given) | > 100 µM (inactive) | > 100 µM (inactive) | > 100 µM (inactive) | 25.4 µM (inactive) | > 100 µM (inactive) | > 100 µM (inactive) |  | > 100 µM (inactive) | 
17 | NC(=O)N/N=C(\CC1OC(=O)c2ccccc21)c1ccco1 (stereo not given) | > 100 µM (inactive) | > 100 µM (inactive) | > 100 µM (inactive) | > 100 µM (inactive) | > 100 µM (inactive) | > 100 µM (inactive) | > 100 µM (inactive) |  | > 100 µM (inactive)
18 | O=C1c2ccccc2C(=O)c2nc3ccc(Cl)cc3cc21 | > 100 µM (inactive) | > 100 µM (inactive) | > 100 µM (inactive) |  | > 100 µM (inactive) | > 100 µM (inactive) | > 100 µM (inactive) | > 100 µM (inactive) | > 100 µM (inactive)
19 | COC(=O)C1=NC(=S)NC(c2ccccc2)C1c1nc2ccccc2o1 (stereo not given) | > 50 µM (inactive) | > 50 µM (inactive) |  | > 50 µM (inactive) | > 50 µM (inactive) | > 50 µM (inactive) | > 50 µM (inactive) | > 50 µM (inactive) | 
20 | CC(=O)OCC1=CC2CCC3C(C)(CCC[C@]3(C)COC(C)=O)C23CC[C@H]1C3 (stereo not given in full) | 51.6 µM (inactive) | 12.9 µM (inactive) | 29.6 µM (inactive) | > 100 µM (inactive) | 41 µM (inactive) | 29.2 µM (inactive) | 34.5 µM (inactive) |  | > 100 µM (inactive)
21 | O=C1CCC(=O)c2c1c(O)c1ccncc1c2O | 13.7 µM (inactive) | 12 µM (inactive) | 17.3 µM (inactive) | 26.9 µM (inactive) | 20.9 µM (inactive) | 16.6 µM (inactive) | 2.92 µM (inactive) | 23.7 µM (inactive) | 25.4 µM (inactive)
22 | O=C1OC(=O)c2c1c(-c1ccccc1)cn2-c1ccc(Cl)cc1 | > 100 µM (inactive) | 77.3 µM (inactive) | 8.77 µM (inactive) | > 100 µM (inactive) | 22.1 µM (inactive) | 5.94 µM (inactive) | 21.1 µM (inactive) | > 100 µM (inactive) | > 100 µM (inactive)
23 | COc1ccc(/C=C/C(=O)c2sc(N)nc2C)cc1 | > 100 µM (inactive) | > 100 µM (inactive) | > 100 µM (inactive) | > 100 µM (inactive) | > 100 µM (inactive) |  | > 100 µM (inactive) | > 100 µM (inactive) | 
